{
  "source": "patent US20050112573A1",
  "about": "“Method of detecting toxic substance” (priority 2001, published 2005)",
  "system": "yeast genes (level of expressed mRNA)",
  "assay": "DNA chip analysis of expressed mRNA of yeast genes after 2 h culture with a toxic chemical substance",
  "assay_type": "cell-based, Saccharomyces cerevisiae S288C",
  "in_short": "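Values are treated-to-control fluorescence ratios from a whole-yeast-genome DNA chip (65° C, over 12 h hybridization) using Cy3/Cy5-labelled cDNA from mRNA. Log-phase S288C cells in YPD at 25° C were exposed 2 h to a toxicant at sublethal, growth-inhibiting concentration.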",
  "data": [
    {"substance": "HgCl2 [(3)]", "values": [
      {"measurement": "The level of expressed mRNA in the presence of chemical substance/", "setting": "yeast gene YNL074C, ratio to control without chemical substance, 2 h culture", "result": 1.8},
      {"measurement": "The level of expressed mRNA in the presence of chemical substance/", "setting": "yeast gene YNL092W, ratio to control without chemical substance, 2 h culture", "result": 2.4},
      {"measurement": "The level of expressed mRNA in the presence of chemical substance/The level of expressed mRNA in the absence of chemical substance", "setting": "yeast gene YNL093W", "result": 0.4},
      {"measurement": "The level of expressed mRNA in the presence of chemical substance/", "setting": "yeast gene YNL115C, ratio to control without chemical substance, 2 h culture", "result": 1.6},
      {"measurement": "The level of expressed mRNA in the presence of chemical substance/", "setting": "yeast gene YNL156C, ratio to control without chemical substance, 2 h culture", "result": 0.9},
      {"measurement": "The level of expressed mRNA in the presence of chemical substance/", "setting": "yeast gene YNL234W, ratio to control without chemical substance, 2 h culture", "result": 0.6},
      {"measurement": "The level of expressed mRNA in the presence of chemical substance/", "setting": "yeast gene YNL281W, ratio to control without chemical", "result": 2.0},
      {"measurement": "The level of expressed mRNA in the presence of chemical substance/", "setting": "yeast gene YNL305C, ratio to control without chemical", "result": 2.7},
      {"measurement": "The level of expressed mRNA in the presence of chemical substance/The level of expressed mRNA in the absence of chemical substance", "setting": "yeast gene YNL333W", "result": 1.7},
      {"measurement": "The level of expressed mRNA in the presence of chemical substance/The level of expressed mRNA in the absence of chemical substance", "setting": "yeast gene YNR010W", "result": 0.5},
      {"measurement": "The level of expressed mRNA in the presence of chemical substance/", "setting": "yeast gene YNR068C, ratio to control without chemical", "result": 2.3},
      {"measurement": "The level of expressed mRNA in the presence of chemical substance/The level of expressed mRNA in the absence of chemical substance", "setting": "yeast gene YNR069C", "result": 0.7},
      {"measurement": "The level of expressed mRNA in the presence of chemical substance/in the absence of chemical substance", "setting": "yeast gene YNR072W", "result": 0.5},
      {"measurement": "The level of expressed mRNA in the presence of chemical substance/The level of expressed mRNA in the absence of chemical substance", "setting": "yeast gene YOL013C", "result": 1.0},
      {"measurement": "The level of expressed mRNA in the presence of chemical substance/", "setting": "yeast gene YOL032W, ratio to control without chemical", "result": 2.0},
      {"measurement": "The level of expressed mRNA in the presence of chemical substance/", "setting": "yeast gene YOL036W, ratio to control without chemical", "result": 1.3},
      {"measurement": "The level of expressed mRNA in the presence of chemical substance/", "setting": "yeast gene YOL047C, ratio to control without chemical", "result": 1.1},
      {"measurement": "The level of expressed mRNA in the presence of chemical substance/", "setting": "yeast gene YOL071W, ratio to control without chemical", "result": 1.7},
      {"measurement": "The level of expressed mRNA in the presence of chemical substance/", "setting": "yeast gene YOL082W, ratio to control without chemical", "result": 1.6},
      {"measurement": "The level of expressed mRNA in the presence of chemical substance/", "setting": "yeast gene YOL083W, ratio to control without chemical", "result": 1.2},
      {"measurement": "The level of expressed mRNA in the presence of chemical substance/in the absence of chemical substance", "setting": "yeast gene YOL096C", "result": 1.2},
      {"measurement": "The level of expressed mRNA in the presence of chemical substance/", "setting": "yeast gene YOL117W, ratio to control without chemical", "result": 0.5},
      {"measurement": "The level of expressed mRNA in the presence of chemical substance/", "setting": "yeast gene YOL131W, ratio to control without chemical", "result": 0.6},
      {"measurement": "The level of expressed mRNA in the presence of chemical substance/", "setting": "yeast gene YOL150C, ratio to control without chemical substance, 2 h culture", "result": 9.9},
      {"measurement": "The level of expressed mRNA in the presence of chemical substance/", "setting": "yeast gene YOL162W, ratio to control without chemical", "result": 1.7},
      {"measurement": "The level of expressed mRNA in the presence of chemical substance/The level of expressed mRNA in the absence of chemical substance", "setting": "yeast gene YOL164W", "result": 1.0},
      {"measurement": "The level of expressed mRNA in the presence of chemical substance/", "setting": "yeast gene YOR019W, ratio to control without chemical", "result": 0.8},
      {"measurement": "The level of expressed mRNA in the presence of chemical substance/The level of expressed mRNA in the absence of chemical substance", "setting": "yeast gene YOR036W", "result": 1.4},
      {"measurement": "The level of expressed mRNA in the presence of chemical substance/The level of expressed mRNA in the absence of chemical substance", "setting": "yeast gene YOR117W", "result": 1.7},
      {"measurement": "The level of expressed mRNA in the presence of chemical substance/The level of expressed mRNA in the absence of chemical substance", "setting": "yeast gene YOR124C", "result": 1.3},
      {"measurement": "The level of expressed mRNA in the presence of chemical substance/The level of expressed mRNA in the absence of chemical substance", "setting": "yeast gene YOR132W", "result": 0.8},
      {"measurement": "The level of expressed mRNA in the presence of chemical substance/The level of expressed mRNA in the absence of chemical substance", "setting": "yeast gene YOR157C", "result": 1.2},
      {"measurement": "The level of expressed mRNA in the presence of chemical substance/in the absence of chemical substance", "setting": "yeast gene YOR180C", "result": 1.0},
      {"measurement": "The level of expressed mRNA in the presence of chemical substance/The level of expressed mRNA in the absence of chemical substance", "setting": "yeast gene YOR181W", "result": 1.1},
      {"measurement": "The level of expressed mRNA in the presence of chemical substance/The level of expressed mRNA in the absence of chemical substance", "setting": "yeast gene YOR185C", "result": 1.9},
      {"measurement": "The level of expressed mRNA in the presence of chemical substance/", "setting": "yeast gene YOR197W, ratio to control without chemical", "result": 1.1},
      {"measurement": "The level of expressed mRNA in the presence of chemical substance/The level of expressed mRNA in the absence of chemical substance", "setting": "yeast gene YOR198C", "result": 1.4},
      {"measurement": "The level of expressed mRNA in the presence of chemical substance/The level of expressed mRNA in the absence of chemical substance", "setting": "yeast gene YOR259C", "result": 0.8},
      {"measurement": "The level of expressed mRNA in the presence of chemical substance/The level of expressed mRNA in the absence of chemical substance", "setting": "yeast gene YOR261C", "result": 0.6},
      {"measurement": "The level of expressed mRNA in the presence of chemical substance/The level of expressed mRNA in the absence of chemical substance", "setting": "yeast gene YOR288C", "result": 1.1},
      {"measurement": "The level of expressed mRNA in the presence of chemical substance/The level of expressed mRNA in the absence of chemical substance", "setting": "yeast gene YOR355W", "result": 1.1},
      {"measurement": "The level of expressed mRNA in the presence of chemical substance/in the absence of chemical substance", "setting": "yeast gene YOR363C", "result": 0.9},
      {"measurement": "The level of expressed mRNA in the presence of chemical substance/The level of expressed mRNA in the absence of chemical substance", "setting": "yeast gene YOR383C", "result": 2.6},
      {"measurement": "The level of expressed mRNA in the presence of chemical substance/", "setting": "yeast gene YPL087W, ratio to control without chemical", "result": 3.0},
      {"measurement": "The level of expressed mRNA in the presence of chemical substance/The level of expressed mRNA in the absence of chemical substance", "setting": "yeast gene YPL089C", "result": 0.5},
      {"measurement": "The level of expressed mRNA in the presence of chemical substance/The level of expressed mRNA in the absence of chemical substance", "setting": "yeast gene YPL109C", "result": 0.5},
      {"measurement": "The level of expressed mRNA in the presence of chemical substance/The level of expressed mRNA in the absence of chemical substance", "setting": "yeast gene YPL149W", "result": 0.6},
      {"measurement": "The level of expressed mRNA in the presence of chemical substance/The level of expressed mRNA in the absence of chemical substance", "setting": "yeast gene YPL154C", "result": 4.2},
      {"measurement": "The level of expressed mRNA in the presence of chemical substance/", "setting": "yeast gene YPL196W, ratio to control without chemical", "result": 1.3},
      {"measurement": "The level of expressed mRNA in the presence of chemical substance/", "setting": "yeast gene YPL206C, ratio to control without chemical", "result": 1.4},
      {"measurement": "The level of expressed mRNA in the presence of chemical substance/", "setting": "yeast gene YPL222W, ratio to control without chemical", "result": 0.8},
      {"measurement": "The level of expressed mRNA in the presence of chemical substance/", "setting": "yeast gene YPR023C, ratio to control without chemical", "result": 1.2},
      {"measurement": "The level of expressed mRNA in the presence of chemical substance/The level of expressed mRNA in the absence of chemical substance", "setting": "yeast gene YPR103W", "result": 1.3},
      {"measurement": "The level of expressed mRNA in the presence of chemical substance/The level of expressed mRNA in the absence of chemical substance", "setting": "yeast gene YPR108W", "result": 1.3},
      {"measurement": "The level of expressed mRNA in the presence of chemical substance/", "setting": "yeast gene YPR151C, ratio to control without chemical", "result": 1.5},
      {"measurement": "The level of expressed mRNA in the presence of chemical substance/in the absence of chemical substance", "setting": "yeast gene YPR184W", "result": 5.7}
    ]}
  ]
}
